Experimental data taken from patent US20090099103A1, “COMBINATIONS OF THERAPEUTIC AGENTS FOR TREATING CANCER” (NOVARTIS AG., priority 2006, published 2009).

Test system: A549 cells
Test: Combination dose-matrix cell viability assay (CellTiter-Blue / alamar blue), A549
Type: cell-based
Settings: in the presence of increasing concentrations of cladribine
Description: The inhibition ranges from 0% at the untreated level to 100% when T=0.
This effectively calculates a volume between the measured and Loewe additive response surfaces, weighted towards high inhibition and corrected for varying dilution factors.

CCN1CCN(Cc2ccc(-c3cc4c(N[C@H](C)c5ccccc5)ncnc4[nH]3)cc2)CC1 [{6-[4-(4-ethyl-piperazin-1-ylmethyl)-phenyl]-7H-pyrrolo[2,3-d]pyrimidin-4-yl]-((R)-1-phenyl-ethyl)-amine]
change in potency of the Erb-B/VEGF inhibitor: significant increase in the potency
